Test system: Sphaerotheca pannosa
Test: Sphaerotheca test roses/curative
Format: in vivo, Sphaerotheca pannosa on roses
Conditions: infected roses sprayed three times at 7-day intervals; application rate 100 g/ha
Procedure: To produce a suitable preparation of active compound, a commercial formulation of active compound or active compound combination is mixed with water until the desired concentration is reached.
To test for curative activity, roses infected with Sphaerotheca pannosa are sprayed three times, at intervals of in each case 7 days, with the preparation of active compound at the stated application rate. The plants are placed in a greenhouse at temperatures between 15° C. and 23° C. and a relative atmospheric humidity of about 70%.
Evaluation is carried out 10 or 20 days after the third treatment. 0% means an efficacy which corresponds to that of the control, whereas an efficacy of 100% means that no infection is observed.

`CC(C)(C)C(O)(CCc1ccc(Cl)cc1)Cn1cncn1` (centres unmarked) [tebuconazoles, tebuconazole] was tested, and the “Efficacy in % 10 days after the third treatment” value was 28.6% and the “Efficacy in % 20 days after the third treatment” value was 26.6%.

Source: patent US6884798B2, “Fungicidal agent combinations” (Bayer CropScience AG, priority 2000, dated 2005)
